# Data: patent US12281304B2, “Compositions and methods for treating and preventing muscular disorders and dystrophies, steroid side effects, and inflammation” (Children's National Medical Center, priority 2018, dated 2025)
# Test system: miRNAs in diaphragm muscle of mdx mice
# Test: TaqMan low-density array (TLDA) miRNA profiling of diaphragm, discovery set (prophylactic mdx trial)
# Assay type: in vivo, mouse
# From the text: Archival muscle samples (diaphragm) from two separate preclinical studies were obtained, with each trial showing a significant benefit from both prednisolone and vamorolone drug treatments (23). Prednisolone was used because it is the active form of prednisone, the current DMD standard of care. The first, “discovery set” of diaphragm muscles was from a prophylactic trial design where 2-week old (postnatal day 15) mdx or wild type control mice received oral dosing for 6 weeks with vehicle (cherry syrup), prednisolone (5 mg/kg), or vamorolone (15 mg/kg) as previously reported (23). The second, “validation set” of diaphragm muscles was from an extended trial in older mice where mdx or wild type mice were subjected to treadmill running to unmask mild phenotypes. Mice in this validation set were treated with either vehicle, prednisolone (5 mg/kg) or vamorolone (45 mg/kg) for four months beginning at two months of age (23). At the endpoint of each trial, diaphragm muscles were harvested and frozen in liquid nitrogen-cooled isopentane.
# We extracted total RNA from 5 diaphragm muscles per treatment group in the discovery set of samples from 8-week old mice. RNA was extracted using a modified TRIzol protocol with isopropanol precipitation at −20° C. overnight. This RNA was reverse transcribed to cDNA using a High Capacity cDNA Reverse Transcription Kit with RNase Inhibitor (ThermoFisher; Carlsbad, Calif.), with miRNA-specific Megaplex RT Primers, Rodent Pools Set version 3.0 (ThermoFisher; Carlsbad, Calif.). Levels of each of the miRNAs were profiled in the discovery set using TAQMAN Array Rodent MiRNA A+B Cards Set v3.0 (ThermoFisher; Carlsbad, Calif.).
# In the discovery set experiments, levels of each miRNA were quantified in TaqMan low-density arrays using ThermoFisher Cloud software with the Relative Quantification Application (ThermoFisher; Carlsbad, Calif.) tool. Data was analyzed by ANOVA with post-hoc comparison of each group to the mdx vehicle-treated group. […] A P-value of P≤0.05 was set as the significance threshold, without adjustment for multiple comparisons. To reduce false-positive discovery in this setting, an evidence-based approach was used to identify efficacy associated miRNAs where 1) results from the multiple groups were cross-referenced, and 2) all candidate miRNAs identified in this discovery set were then assayed in a separate validation set of mice. For the validation set experiments, levels of each individual miRNA were assayed in samples from a second, independent preclinical trial in adult mdx mice. Data from individual TaqMan Assays was quantified using QuantStudio Real-Time PCR version 1.3 software (Applied Biosystems; Foster City, Calif.). The levels of all miRNAs were normalized to the geometric mean of multiple control genes (60, 70). Comparison of groups was made by ANOVA with Holm-Sidak post-hoc test comparing each group to mdx vehicle.
# To visualize behavior of miRNAs within individual mice for each group, heat map images were generated. Heat maps were generated using Rq values of TLDA array data exported from the Relative Quantification Application of the ThermoFisher Cloud software (ThermoFisher; Carlsbad, Calif.) tool. Heat maps of miRNA expression were produced using Hierarchical Clustering Explorer Version 3.5 (at www.cs.umd.edu/hcil/multi-cluster/) produced by the Human Computer Interaction Laboratory (University of Maryland; College Park, Md.).
# To examine miRNA expression TaqMan low density qPCR array cards were used to profile approximately 750 miRNAs within diaphragm muscle from a discovery set of mice. Samples for this experiment came from a trial that utilized a prophylactic approach (23). Briefly, mdx mice undergo a stage of peak severity characterized by widespread inflammation and necrosis from approximately 3-8 weeks of age, followed by a recovery stage where mice show milder phenotypes (25). […]
# [1] = discovery set diaphragm muscle, mdx mice, Pred 5 mg/kg, Vam 15 mg/kg
# [2] = mdx diaphragm, vs untreated mdx, Pred 5 mg/kg, Vam 15 mg/kg
smiles,measurement,setting,value
C[C@@H]1C[C@H]2[C@@H]3CCC4=CC(=O)C=C[C@]4(C)C3=CC[C@]2(C)[C@@]1(O)C(=O)CO [vamorolone],miRNA 142-3p % expression in comparison to mdx vehicle,[1],65 ± 20 %
same,miRNA 142-5p % expression in comparison to mdx vehicle,[1],61 ± 23 %
same,miRNA 146a % expression in comparison to mdx vehicle,[1],52 ± 12 %
same,miRNA 301a % expression in comparison to mdx vehicle,[1],77 ± 12 %
same,miRNA 324-3p % expression in comparison to mdx vehicle,[1],75 ± 13 %
same,miRNA 455-3p % expression in comparison to mdx vehicle,[1],61 ± 14 %
same,miRNA 455-5p % expression in comparison to mdx vehicle,[1],64 ± 15 %
same,miRNA 497 % expression in comparison to mdx vehicle,[1],65 ± 11 %
same,miRNA 652 % expression in comparison to mdx vehicle,[1],64 ± 18 %
same,number of miRNAs significantly changed in dystrophic muscle,"mdx diaphragm, 8-week-old mice, oral dosing 6 weeks, prednisolone 5 mg/kg, vamorolone 15 mg/kg, versus untreated mdx, P≤0.05",41
same,number of miRNAs significantly increased by treatment,"mdx diaphragm, discovery set, prednisolone 5 mg/kg, vamorolone 15 mg/kg, P≤0.05",none of the miRNAs queried in the TLDA cards were significantly increased
same,expression of the nine efficacy-associated miRNAs elevated in dystrophy,"mdx diaphragm, discovery set, versus mdx vehicle",returned towards healthy wild type levels
same,Rq hsa-let-7i#-002172,[2],0.939
same,Rq hsa-miR-30e-3p-000422,[2],0.849
same,Rq hsa-miR-22#-002301,[2],0.78
same,Rq hsa-miR-140-3p-002234,[2],0.903
same,Rq hsa-miR-143-000466,[2],1.29
same,Rq hsa-miR-154#-000478,[2],0.689
same,Rq hsa-miR-190b-002263,[2],0.822
same,Rq hsa-miR-200c-000505,[2],0.453
same,Rq hsa-miR-206-000510,[2],0.983
same,Rq hsa-miR-213-000516,[2],0.839
same,Rq hsa-miR-214#-002293,[2],0.889
same,Rq hsa-miR-214-000517,[2],0.994
same,Rq hsa-miR-376a#-001287,[2],0.845
same,Rq hsa-miR-455-001280,[2],0.637
same,Rq hsa-miR-744#-002325,[2],0.816
same,Rq mmu-let-7e-002406,[2],0.665
same,Rq mmu-let-7a-000377,[2],0.667
same,Rq mmu-let-7b-000378,[2],0.754
same,Rq mmu-let-7c-1#-002479,[2],1.038
same,Rq mmu-let-7c-000379,[2],0.691
same,Rq mmu-let-7i-002221,[2],0.777
same,Rq mmu-let-7d#-001178,[2],0.61
same,Rq mmu-let-7d-002283,[2],0.789
same,Rq mmu-miR-1-002222,[2],0.897
same,Rq mmu-miR-15a-000389,[2],0.719
same,Rq mmu-miR-16-000391,[2],0.781
same,Rq mmu-miR-18a-002422,[2],1.288
same,Rq mmu-miR-19a-000395,[2],0.886
same,Rq mmu-miR-20a#-002491,[2],0.825
same,Rq mmu-miR-21#-002493,[2],0.647
same,Rq mmu-miR-21-000397,[2],0.677
same,Rq mmu-miR-23b-000400,[2],0.675
same,Rq mmu-miR-25-000403,[2],0.867
same,Rq mmu-miR-26a-000405,[2],0.766
same,Rq mmu-miR-27b-000409,[2],0.82
same,Rq mmu-miR-28-000411,[2],0.842
same,Rq mmu-miR-30e-002223,[2],0.847
same,Rq mmu-miR-30a-000417,[2],0.834
same,Rq mmu-miR-30b-000602,[2],0.855
same,Rq mmu-miR-30c-000419,[2],0.818
same,Rq mmu-miR-31#-002495,[2],0.821
same,Rq mmu-miR-31-000185,[2],1.032
same,Rq mmu-miR-34a-000426,[2],0.789
same,Rq mmu-miR-34b-3p-002618,[2],0.798
same,Rq mmu-miR-34c#-002584,[2],0.748
same,Rq mmu-miR-34c-000428,[2],0.811
same,Rq mmu-miR-99b-000436,[2],0.913
same,Rq mmu-miR-100-000437,[2],0.721
same,Rq mmu-miR-103-000439,[2],0.628
same,Rq mmu-miR-122-002245,[2],0.072
same,Rq mmu-miR-125a-3p-002199,[2],0.828
same,Rq mmu-miR-125b#-002508,[2],0.803
same,Rq mmu-miR-125b-3p-002378,[2],0.866
same,Rq mmu-miR-125b-5p-000449,[2],0.682
same,Rq mmu-miR-126-3p-002228,[2],0.809
same,Rq mmu-miR-126-5p-000451,[2],0.812
same,Rq mmu-miR-127-000452,[2],1.107
same,Rq mmu-miR-128a-002216,[2],0.847
same,Rq mmu-miR-130a-000454,[2],0.717
same,Rq mmu-miR-130b#-002460,[2],1.164
same,Rq mmu-miR-130b-000456,[2],0.88
same,Rq mmu-miR-133a-002246,[2],0.996
same,Rq mmu-miR-134-001186,[2],1.353
same,Rq mmu-miR-136-002511,[2],0.942
same,Rq mmu-miR-138#-002554,[2],0.384
same,Rq mmu-miR-140-001187,[2],0.818
same,Rq mmu-miR-142-3p-000464,[2],0.626
same,Rq mmu-miR-142-5p-002248,[2],0.576
same,Rq mmu-miR-143-002249,[2],0.716
same,Rq mmu-miR-145-002278,[2],0.722
same,Rq mmu-miR-146a-000468,[2],0.513
same,Rq mmu-miR-146b#-002453,[2],0.275
same,Rq mmu-miR-146b-001097,[2],0.645
same,Rq mmu-miR-148a-000470,[2],0.496
same,Rq mmu-miR-148b-000471,[2],0.568
same,Rq mmu-miR-150#-002570,[2],0.293
same,Rq mmu-miR-150-000473,[2],0.692
same,Rq mmu-miR-151-3p-001190,[2],0.971
same,Rq mmu-miR-152-000475,[2],0.785
same,Rq mmu-miR-154-000477,[2],0.898
same,Rq mmu-miR-155-002571,[2],0.876
same,Rq mmu-miR-181a-000480,[2],0.773
same,Rq mmu-miR-181c-000482,[2],0.71
same,Rq mmu-miR-185-002271,[2],0.886
same,Rq mmu-miR-186-002285,[2],0.994
same,Rq mmu-miR-191-002299,[2],0.815
same,Rq mmu-miR-193#-002577,[2],0.682
same,Rq mmu-miR-195-000494,[2],0.669
same,Rq mmu-miR-199a-3p-002304,[2],0.722
same,Rq mmu-miR-199b-001131,[2],0.667
same,Rq mmu-miR-200c-002300,[2],0.577
same,Rq mmu-miR-203-000507,[2],0.521
same,Rq mmu-miR-204-000508,[2],0.627
same,Rq mmu-miR-210-000512,[2],0.746
same,Rq mmu-miR-214-002306,[2],0.842
